From patent US20080318949A1, “Pyrazolopyrimidinone Derivatives, Their Preparation And Their Use” (Topharman Shanghai Co., Ltd, priority 2005, published 2008)
pIC50: −log10 of the molar value.

Legend:
male KM mouse = assay: Acute oral toxicity test; assay type: in vivo; details: single oral dose of 3 g/kg, 10 or 11 mice per group
Experimental: In this test male KM mouse weighting 18-22 g were used, and 10 or 11 mouse were assigned randomly to each group. […] The animals were fasted for 12 hours before the administration.

[1] = target: T1, PDE5 from human platelets (Homo sapiens, UniProt O76074); assay: PDE5 inhibitory activity test (scintillation proximity assay); assay type: biochemical
T1 construct: from tissue; host or cells: human platelets
Text: (§1) The PDE5 and PDE3 were isolated form human platelets, while the PDE6 was isolated form bovine retinas. The enzyme inhibitory activity test conducted immediately after the enzymes had been isolated, using a scintillation proximity assay for the direct detection of AMP/GMP by the TRKQ7100 and TRKQ7090 kit. In summary, the effect of PDE inhibitors was investigated by assaying a fixed amount of enzyme in the presence of varying inhibitor concentrations and low substrate. The final assay volume was made up to 100 μl with 10 μl assay buffer (50 mM Tris/HCl PH 7.5, 8.3 mM MgCl2, 1.7 mM EGTA), and water. Reactions were initiated with enzyme, incubate for 30 minutes at 30° C. and terminated with 50 μl yttrium silicate SPA beads suspension containing zinc sulphate. Shook for 20 minutes and settled for 30 minutes in the dark, then counted on a BECKMAN LS6500 MULTI-PURPOSE SCINTILLATION COUNTER. The IC50 value for the compounds according the present invention was calculated according the counts.
According to the above-mentioned method, the inhibitory activities of some compounds of formula IA and IB according to the invention against PDE5 from human platelets were determined.

PDE6 from bovine retina = target: T2, PDE6 from bovine retina (Bos taurus, UniProt P11541+P23439); assay: PDE6 inhibitory activity test (scintillation proximity assay); assay type: biochemical; details: for pIC50: PDE6 from bovine retina; for PDE6 IC50/PDE5 IC50: selectivity of PDE5 versus PDE6
T2 construct: the PDE6 was isolated form bovine retinas; from tissue; host or cells: bovine retina
T2 sequence (P11541 2-856 limits assumed): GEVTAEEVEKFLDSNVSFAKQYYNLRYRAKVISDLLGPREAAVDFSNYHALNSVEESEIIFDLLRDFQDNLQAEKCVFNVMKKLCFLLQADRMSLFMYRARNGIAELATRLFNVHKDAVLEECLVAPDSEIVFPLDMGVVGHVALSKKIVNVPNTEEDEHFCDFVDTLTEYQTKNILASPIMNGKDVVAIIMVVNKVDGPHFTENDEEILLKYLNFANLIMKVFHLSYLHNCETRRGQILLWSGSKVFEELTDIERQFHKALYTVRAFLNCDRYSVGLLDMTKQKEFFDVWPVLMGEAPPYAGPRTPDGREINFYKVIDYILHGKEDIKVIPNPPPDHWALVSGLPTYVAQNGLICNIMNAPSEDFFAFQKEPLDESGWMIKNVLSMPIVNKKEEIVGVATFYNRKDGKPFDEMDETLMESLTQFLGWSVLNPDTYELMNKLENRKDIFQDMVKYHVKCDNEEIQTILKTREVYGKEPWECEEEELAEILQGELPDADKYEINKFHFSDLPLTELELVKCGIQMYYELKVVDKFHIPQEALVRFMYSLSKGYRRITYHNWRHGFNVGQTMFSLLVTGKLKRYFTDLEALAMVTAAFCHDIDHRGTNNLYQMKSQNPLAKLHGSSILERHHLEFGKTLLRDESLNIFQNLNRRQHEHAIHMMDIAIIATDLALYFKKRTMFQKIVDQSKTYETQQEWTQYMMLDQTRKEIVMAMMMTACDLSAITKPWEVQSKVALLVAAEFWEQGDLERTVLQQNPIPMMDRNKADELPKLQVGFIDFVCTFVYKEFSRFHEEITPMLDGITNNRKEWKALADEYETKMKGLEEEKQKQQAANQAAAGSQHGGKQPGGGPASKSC
T2 sequence (P23439 2-850 limits assumed): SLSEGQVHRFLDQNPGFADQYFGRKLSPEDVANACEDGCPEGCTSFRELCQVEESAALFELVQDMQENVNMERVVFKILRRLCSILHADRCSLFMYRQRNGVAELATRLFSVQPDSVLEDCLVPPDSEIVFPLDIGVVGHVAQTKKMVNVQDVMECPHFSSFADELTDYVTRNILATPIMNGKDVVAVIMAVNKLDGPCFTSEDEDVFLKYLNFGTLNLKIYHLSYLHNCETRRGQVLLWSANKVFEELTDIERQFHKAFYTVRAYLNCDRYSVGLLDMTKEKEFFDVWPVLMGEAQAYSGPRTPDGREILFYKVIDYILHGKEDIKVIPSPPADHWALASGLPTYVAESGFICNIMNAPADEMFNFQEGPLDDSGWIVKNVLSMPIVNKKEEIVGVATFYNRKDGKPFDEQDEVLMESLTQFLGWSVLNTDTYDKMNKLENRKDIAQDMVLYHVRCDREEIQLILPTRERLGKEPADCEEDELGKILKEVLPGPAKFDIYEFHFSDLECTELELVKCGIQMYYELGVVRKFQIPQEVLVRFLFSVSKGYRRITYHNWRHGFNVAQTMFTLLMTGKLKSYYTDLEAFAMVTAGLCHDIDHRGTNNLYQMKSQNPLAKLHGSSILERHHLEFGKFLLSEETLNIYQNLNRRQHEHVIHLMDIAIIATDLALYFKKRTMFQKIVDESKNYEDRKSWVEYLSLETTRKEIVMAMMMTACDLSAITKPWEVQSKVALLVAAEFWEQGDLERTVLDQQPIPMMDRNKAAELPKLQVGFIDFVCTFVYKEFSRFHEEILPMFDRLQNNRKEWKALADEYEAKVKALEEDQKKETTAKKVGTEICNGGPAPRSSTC
Text: as §1

rat corpora cavernosa = assay: Pharmacodynamic test: intracavernous pressure on electric stimulation of the cavernous nerve; assay type: in vivo; details: anesthetized male SD rats, 5 mg/kg orally, ratio of ICP to MBp
Experimental: The test was carried out based on the methods reported (International Journal of Impotence Research 2002, 14, 251 and The Journal of Urology 1992, 147, 1124). After fasted for 12 hours, 4 male SD rats were randomized into each group. After anesthetizing the rats with sodium pentobarbital (50 mg/kg, i.p.), the penile skin was incised and the prepuce was degloved to expose completely the corpora cavernosa (CC). A needle linked to an electrophysiology instrument was inserted into the CC on the right side in order to measure the intracavernous pressure (ICP). The right carotid artery was cannulated in a similar manner to the polyethylene tube in order to monitor the mean blood pressure (MBp) continuously. […] Electric stimulation was performed at 2 Hz, for 60 s with a pulse duration of 5 ms and 3V using a stimulator. The compounds were administrated orally (5 mg/kg). The change of the ICP and MBp were monitored continuously before and after the administration. The effect of the compounds on the erection induced by electric stimulation was evaluated by the ratio of ICP to MBp. The parameter (ICP/MBp) was used to estimate the influence of the compounds to the rat corpora cavernosa. […] The statistical significance of the differences between groups was calculated using Duncan's multiple comparison.

| pIC50 (PDE6 from bovine retina) | PDE6 IC50/PDE5 IC50 (PDE6 from bovine retina) | pIC50 ([1]; PDE5 in the PDE6 selectivity table) | Compound | Number of death (male KM mouse) | mortality rate (male KM mouse) | pIC50 ([1]; PDE5 from human platelets) | ICP/BP (rat corpora cavernosa) |
| --- | --- | --- | --- | --- | --- | --- | --- |
|  |  |  | 1-methyl-5-{2-propoxy-5-[[1-ethyl-1-(3-morpholin-1-yl)propyl]amidosulfonyl]phenyl}-3-n-propyl-1,6-dihydro-7H-pyrazolo[4,3-d]pyrimidin-7-one [Example 112] | 2 | 20% | 7.92 |  |
| 7.48 | 588 | 10.25 | 1-methyl-5-{2-propoxy-5-[bis(2-nicotinoyloxyethyl)amidosulfonyl]phenyl}-3-n-propyl-1,6-dihydro-7H-pyrazolo[4,3-d]pyrimidin-7-one [Example 3] |  |  | 10.25 |  |
|  |  |  | 1-methyl-5-{2-propoxy-5-[bis(3-methoxypropyl)amidosulfonyl]phenyl}-3-n-propyl-1,6-dihydro-7H-pyrazolo[4,3-d]pyrimidin-7-one [Example 103] | 0 | 0% | 8.25 |  |
| 7.25 | 425 |  | CCCOc1ccc(S(=O)(=O)N(CCO)CCO)cc1-c1nc2c(CCC)nn(C)c2c(=O)[nH]1 [Example 2, 1-methyl-5-{2-propyloxy-5-[bis(2-hydroxyethyl)amidosulfonyl]phenyl}-3-n-propyl-1,6-dihydro-7H-pyrazolo[4,3-d]pyrimidin-7-one] |  |  | 9.88 |  |
| 6.88 | 131 |  | CCCc1nn(C)c2c(=O)[nH]c(-c3cc(S(=O)(=O)N(CCOC(=O)c4cccnc4)CCOC(=O)c4cccnc4)ccc3OCC)nc12 [Example 5, 1-methyl-5-{2-ethoxy-5-[bis(2-nicotinoyloxyethyl)amidosulfonyl]phenyl}-3-n-propyl-1,6-dihydro-7H-pyrazolo[4,3-d]pyrimidin-7-one] |  |  | 8.97 |  |
| 8.24 | 65.6 |  | CCCOc1ccc(S(=O)(=O)N(CCN2CCOCC2)Cc2ccccc2)cc1-c1nc2c(CCC)nn(C)c2c(=O)[nH]1 [Example 24, 1-methyl-5-{2-propoxy-5-[[1-benzyl-1-(2-morpholin-1-yl)ethyl]amidosulfonyl]phenyl}-3-n-propyl-1,6-dihydro-7H-pyrazolo[4,3-d]pyrimidin-7-one] |  |  | 10.06 |  |
| 7.03 | 279 |  | CCCc1nn(C)c2c(=O)[nH]c(-c3cc(S(=O)(=O)N(CCN4CCOCC4)Cc4ccccc4)ccc3OCC)nc12 [Example 25, 1-methyl-5-{2-ethoxy-5-[[1-benzyl-1-(2-morpholin-1-yl)ethyl]amidosulfonyl]phenyl}-3-n-propyl-1,6-dihydro-7H-pyrazolol[4,3-d]pyrimidin-7-one] |  |  | 9.47 |  |
|  |  |  | CCCOc1ccc(S(=O)(=O)N(C)CCN(C)C)cc1-c1cc2c(CCC)nn(C)c2c(=O)[nH]1 [Example 75, 1-methyl-5-{2-propoxy-5-[[1-methyl-1-(2-dimethylamino)]amidosulfonyl]phenyl}-3-n-propyl-1,6-dihydro-7H-pyrazolo[4,3-d]pyrimidin-7-one] |  |  |  | 74.2 ± 7.8 |
|  |  |  | CCCOc1ccc(S(=O)(=O)N(C)CCN2CCCCC2)cc1-c1nc2c(CCC)nn(C)c2c(=O)[nH]1 [Example 78, 1-methyl-5-{2-propoxy-5-[[1-methyl-1-(2-piperidin-1-yl)ethyl]amidosulfonyl]phenyl}-3-n-propyl-1,6-dihydro-7H-pyrazolo[4,3-d]pyrimidin-7-one] |  |  | 8.06 | 71.6 ± 8.3 |
|  |  |  | CCCOc1ccc(S(=O)(=O)N(CCO)CCN2CCOCC2)cc1-c1cc2c(CCC)nn(C)c2c(=O)[nH]1 [Example 95, 1-methyl-5-{2-propoxy-5-[[1-(2-hydroxyethyl)-1-(2-morpholin-1-yl)ethyl]amidosulfonyl]phenyl}-3-n-propyl-1,6-dihydro-7H-pyrazolo[4,3-d]pyrimidin-7-one] |  |  |  | 57.2 ± 10.1 |
|  |  |  | CCCOc1ccc(S(=O)(=O)N(CCCO)CCCOC)cc1-c1nc2c(CCC)nn(C)c2c(=O)[nH]1 [Example 99, 1-methyl-5-{2-propoxy-5-[[1-(3-methoxypropyl)-1-(3-hydroxypropyl)]amidosulfonyl]phenyl}-3-n-propyl-1,6-dihydro-7H-pyrazolo[4,3-d]pyrimidin-7-one] | 1 | 10% | 8.39 | 56.2 ± 9.3 |
|  |  |  | CCCc1nn(C)c2c(=O)[nH]c(-c3cc(S(=O)(=O)N4CCN(C)CC4)ccc3OCC)nc12 [sildenafil, Sildenafil, reference compound] | 6 | 60% |  | 80.1 ± 5.1 |

| Compound | pIC50 (PDE6 from bovine retina) | PDE6 IC50/PDE5 IC50 (PDE6 from bovine retina) | pIC50 ([1]; PDE5 in the PDE6 selectivity table) | Number of death (male KM mouse) | mortality rate (male KM mouse) | pIC50 ([1]; PDE5 from human platelets) | ICP/BP (rat corpora cavernosa) |
| --- | --- | --- | --- | --- | --- | --- | --- |
| CCCOc1ccc(S(=O)(=O)N(CCOC(C)=O)CCOC(C)=O)cc1-c1nc2c(CCC)nn(C)c2c(=O)[nH]1 [Example 1, 1-methyl-5-{2-propyloxy-5-[bis(2-acetoxyethyl)amidosulfonyl]phenyl}-3-n-propyl-1,6-dihydro-7H-pyrazolo[4,3-d]pyrimidin-7-one] | 7.77 | 210 |  |  |  | 10.10 |  |
| CCCc1nn(C)c2c(=O)[nH]c(-c3cc(S(=O)(=O)N(CCOC(C)=O)CCOC(C)=O)ccc3OCC)nc12 [Example 4, 1-methyl-5-{2-ethoxy-5-[bis(2-acetoxyethyl)amidosulfonyl]phenyl}-3-n-propyl-1,6-dihydro-7H-pyrazolo[4,3-d]pyrimidin-7-one] | 6.56 | 82.1 |  |  |  | 8.47 |  |
